From PubChem BioAssay AID2060496 (Molecular Pharmacology Branch, DTP, NCI, 2025) come the findings set out here.

In the test the test system is 276233-004-R-J1-PDC complex spheroid viability. Kind of test: Anticancer human tumor 276233-004-R-J1-PDC patient-derived colon adenocarcinoma cell line growth inhibition [GQUAD]. To be noted: for viability, T/C: stronger effect = lower value. The source says:
DNA G-quadruplex Stabilizer Agents in Combinations in Complex Spheroids
A high-throughput screen of multi-cell type tumor spheroids was designed to identify active combinations of DNA G-quadruplex stabilizer agents and targeted small molecules. Complex spheroids include a stromal component modeled by human endothelial cells (HUVEC) and fibroblasts modeled by human mesenchymal stem cells (MSCs). The concentration ranges selected for each drug and investigational agent were based upon clinically achievable concentrations if the clinical Cmax of the agent was known.
Compounds. The drugs and investigational agents: pidnarulex (CX-5461; NSC782164), APTO-253 (NSC789042), BRACO-19 (NSC847499), peposertib (NSC802822), ceralasertib (NSC780249), elimusertib (NSC800525), camonsertib (NSC841442), AZD-1390 (NSC803789), olaparib (NSC753686), talazoparib (NSC767125), ART-558 (NSC835418), sotorasib (NSC818433), MRTX-1133 (NSC836407), SN-38 (NSC673596), topotecan (NSC609699), etoposide (NSC141540), doxorubicin (NSC123127), gemcitabine (NSC613327), 5-fluorouracil (NSC19893), paclitaxel (NSC125973), vemurafenib (NSC761431), panobinostat (NSC761190), R-306465 (JNJ-16241199; NSC773264), adavosertib (NSC754352), TP-3654 (NSC805149), carboplatin (NSC241240), KSQ-4279 (NSC840948), and staurosporine (NSC755774) were obtained from the National Cancer Institute (NCI) Developmental Therapeutics Program Chemical Repository (34). The FDA-approved anticancer drug set is available from the NCI Developmental Therapeutics Program. […] The stock solutions were prepared in dimethyl sulfoxide (DMSO, Sigma-Aldrich, St. Louis, MO, cat. D2650) at 800-fold the tested concentration and stored at -70 degrees C prior to their use. All drugs and investigational agents were tested over a range starting from a high concentration at or near the clinical Cmax and decreasing in half-log increments. If the clinical Cmax for an agent had not been determined, the highest concentration tested was 10 microM.
2.3 Cell Culture. All cells were maintained in an incubator at 37 degrees C and 5% CO2 with 95% humidity. The PDC lines were cultured according to standard operating procedures established by the NCI PDMR. All PDCs were thawed and cultured in Matrigel-coated flasks prepared with a working solution of 1X Ham's F-12 nutrient mix, without supplementation (Invitrogen, cat. 11765054), 100 U/mL penicillin-streptomycin (Invitrogen, cat. 15140122), and 2.5% Matrigel (Corning Inc., cat. 354248) for the first three passages. The 857933-349-R-J2-PDC line was cultured in 6C/Colon 1B media, which includes advanced DMEM/F-12 (Thermo Fisher Scientific, cat. 12634028), 10 mM HEPES (Thermo Fisher Scientific, cat. 15630080), 1X GlutaMAX supplement (Thermo Fisher Scientific, cat. 35050061), 0.1 mg/mL primocin (InvivoGen, cat. ant-pm-2), 10% defined fetal bovine serum, heat inactivated (HyClone Laboratories Inc., cat. SH30070.03HI), 50% L-WRN conditioned media (ATCC, cat. CRL-3276), 1.25 mM N-Acetyl-L-cysteine (Sigma-Aldrich, cat. A9165), 10 mM nicotinamide (Sigma-Aldrich, cat. N0636), 1X B-27 supplement (Thermo Fisher Scientific, cat. 17504044), 1X N-2 supplement (Thermo Fisher Scientific, cat. 17502048), 10 microM Y-27632 dihydrochloride (Tocris Bioscience, cat. 1254), and 50 ng/mL human EGF recombinant protein (Thermo Fisher Scientific, cat. PHG0311). The 485176-168-R4-J1-PDC line was cultured in Panc media, which includes all 6C/Colon 1B media components plus 100 ng/mL human FGF-10 (Thermo Fisher Scientific, cat. 100-26), 500 nM SB-431542 (Selleckchem, cat. S1067), and gastrin (Tocris, cat. 3006).
[…]

Where [1] appears, read: curve of first compound, second compound 0.0316 µM.
Setting [2] is: curve of first compound, second compound 0.1 µM.
Setting [3] is: curve of first compound, second compound 0.316 µM.
Setting [4] is: curve of first compound, second compound 1 µM.
Where [5] appears, read: curve of first compound, second compound 3.16 µM.
[6] abbreviates: curve of first compound, second compound 10 µM.
Setting [7] is: second compound 0.0316 µM, first compound 0.0316 µM.
The mark [8] stands for this setting: second compound 0.0316 µM, first compound 0.1 µM.
The mark [9] stands for this setting: second compound 0.0316 µM, first compound 0.316 µM.
[10] abbreviates: second compound 0.0316 µM, first compound 1 µM.
[11] abbreviates: second compound 0.0316 µM, first compound 3.16 µM.
Setting [12] is: second compound 0.0316 µM, first compound 10 µM.
The mark [13] stands for this setting: second compound 0.1 µM, first compound 0.0316 µM.
The mark [14] stands for this setting: second compound 0.1 µM, first compound 0.1 µM.
[15] abbreviates: second compound 0.1 µM, first compound 0.316 µM.
Setting [16] is: second compound 0.1 µM, first compound 1 µM.
[17] abbreviates: second compound 0.1 µM, first compound 3.16 µM.
[18] abbreviates: second compound 0.1 µM, first compound 10 µM.
Where [19] appears, read: second compound 0.316 µM, first compound 0.0316 µM.
The mark [20] stands for this setting: second compound 0.316 µM, first compound 0.1 µM.
Setting [21] is: second compound 0.316 µM, first compound 0.316 µM.
[22] abbreviates: second compound 0.316 µM, first compound 1 µM.
[23] abbreviates: second compound 0.316 µM, first compound 3.16 µM.
Where [24] appears, read: second compound 0.316 µM, first compound 10 µM.
The mark [25] stands for this setting: second compound 1 µM, first compound 0.0316 µM.
The mark [26] stands for this setting: second compound 1 µM, first compound 0.1 µM.
The mark [27] stands for this setting: second compound 1 µM, first compound 0.316 µM.
The mark [28] stands for this setting: second compound 1 µM, first compound 1 µM.
The mark [29] stands for this setting: second compound 1 µM, first compound 3.16 µM.
Setting [30] is: second compound 1 µM, first compound 10 µM.
Where [31] appears, read: second compound 3.16 µM, first compound 0.0316 µM.
[32] abbreviates: second compound 3.16 µM, first compound 0.1 µM.
The mark [33] stands for this setting: second compound 3.16 µM, first compound 0.316 µM.
Setting [34] is: second compound 3.16 µM, first compound 1 µM.
Where [35] appears, read: second compound 3.16 µM, first compound 3.16 µM.
Setting [36] is: second compound 3.16 µM, first compound 10 µM.
The mark [37] stands for this setting: second compound 10 µM, first compound 0.0316 µM.
[38] abbreviates: second compound 10 µM, first compound 0.1 µM.
[39] abbreviates: second compound 10 µM, first compound 0.316 µM.
Where [40] appears, read: second compound 10 µM, first compound 1 µM.
[41] abbreviates: second compound 10 µM, first compound 3.16 µM.
The mark [42] stands for this setting: second compound 10 µM, first compound 10 µM.

Values joined by “and” are separate entries in the source; they are usually repeats but may differ in a detail not shown here. Identical values can stand only once.
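Note: spheroids exposed to drugs for seven days.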

On to `CC1COCCN1c1cc(-c2ccnn2C)c2ccnc(-c3ccn[nH]3)c2n1` (centres undefined), for which the viability, T/C is, setting by setting: (compound 0.0316 µM) 99.9% and 85.8% and 70.3%; (compound 0.1 µM) 85.9% and 83.5% and 72.1%; (compound 0.316 µM) 83.8% and 82.2% and 60.7%; (compound 1 µM) 68.7% and 82.9% and 70.1%; (compound 3.16 µM) 77.7% and 57.3% and 56.7%; (compound 10 µM) 58.9% and 53.9% and 47.2%. In addition, the IC50 (curve of compound) was > 10 µM and 7.41 µM.
For `Nc1ccn(C2OC(CO)C(O)C2(F)F)c(=O)n1` (centres undefined) + CN(C)c1ccc(Nc2c3ccc(NC(=O)CCN4CCCC4)cc3nc3cc(NC(=O)CCN4CCCC4)ccc23)cc1, the IC50 reads like this: under setting [1], above 10 µM; under setting [2], above 10 µM; under setting [3], above 10 µM; under setting [4], above 10 µM; under setting [5], above 10 µM; under setting [6], above 10 µM. Besides, the viability, T/C runs as follows: under setting [7], 97.1%; under setting [8], 109%; under setting [9], 96.2%; under setting [10], 90.6%; under setting [11], 79.6%; under setting [12], 59%. Further, the viability, T/C runs as follows: under setting [13], 86.1%; under setting [14], 88.6%; under setting [15], 89.7%; under setting [16], 94.5%; under setting [17], 73.8%; under setting [18], 65%. For the same compound, the viability, T/C under setting [19] is 71.8%; the viability, T/C under setting [20] was 78.7%; the viability, T/C under setting [21] was 59.6%; the viability, T/C under setting [22] is 56.3%; the viability, T/C under setting [23] is 56.6%; the viability, T/C under setting [24] is 66.9%. Further, the viability, T/C is, setting by setting: under setting [25], 70.8%; under setting [26], 53.9%; under setting [27], 53.6%; under setting [28], 51%; under setting [29], 57.9%; under setting [30], 57.8%. In addition, the viability, T/C under setting [31] was 64.2%; the viability, T/C under setting [32] was 60.5%; the viability, T/C under setting [33] is 56%; the viability, T/C under setting [34] was 58.1%; the viability, T/C under setting [35] is 44.7%; the viability, T/C under setting [36] is 53.8%. For the same compound, the viability, T/C under setting [37] was 56.7%; the viability, T/C under setting [38] was 57.9%; the viability, T/C under setting [39] was 47.5%; the viability, T/C under setting [40] is 65.9%; the viability, T/C under setting [41] is 61.4%; the viability, T/C under setting [42] was 47.2%.
For `COc1cccc2c1C(=O)c1c(O)c3c(c(O)c1C2=O)CC(O)(C(=O)CO)CC3OC1CC(N)C(O)C(C)O1` (centres undefined), the viability, T/C is, setting by setting: (compound 0.0316 µM) 90.2% and 99.5% and 87%; (compound 0.1 µM) 90.8% and 78.6% and 69.9%; (compound 0.316 µM) 84.7% and 99.6% and 86.4%; (compound 1 µM) 67.4% and 66.3% and 80.7%; (compound 3.16 µM) 49.4% and 58.4% and 58.3%; (compound 10 µM) 44.2% and 70.7% and 49.6%. Further, the IC50 (curve of compound) is 3.04 µM and > 10 µM and 9.44 µM.
Regarding `CCc1c2c(nc3ccc(O)cc13)-c1cc3c(c(=O)n1C2)COC(=O)[C@]3(O)CC`, the viability, T/C runs as follows: (compound 0.000999 µM) 98.6% and 89.7% and 104%; (compound 0.00316 µM) 93.7% and 94.5% and 92.8%; (compound 0.00999 µM) 120% and 88.8% and 82.7%; (compound 0.0316 µM) 89.3% and 117% and 90.7%; (compound 0.0999 µM) 98.1% and 103% and 110%; (compound 0.316 µM) 92.2% and 108% and 95.1%. Where the note is “curve of compound”, the IC50 was above 0.316 µM.
Take `COc1ncnc(C2CC2)c1-c1ncc2cnn(Cc3ccc(-c4nc(C(F)(F)F)cn4C(C)C)cc3)c2n1`: the viability, T/C reads like this: (compound 0.0316 µM) 86% and 85.2% and 92%; (compound 0.1 µM) 69% and 77.1% and 72.8%; (compound 0.316 µM) 84.5% and 105% and 85.5%; (compound 1 µM) 82% and 82.4% and 85.8%; (compound 3.16 µM) 94.6% and 92.9% and 82.1%; (compound 10 µM) 98% and 75.9% and 97.7%. Moreover, for the setting “curve of compound”, the IC50 is above 10 µM.
On to `CC1COCCN1c1cc(C2(S(C)(=N)=O)CC2)nc(-c2ccnc3[nH]ccc23)n1` (centres undefined), for which the viability, T/C is 103% (2×) and 89.1% (compound 0.0316 µM); 92.5% and 89% and 63% (compound 0.1 µM); 96.4% and 75.8% and 79.6% (compound 0.316 µM); 93.7% and 76% and 77.1% (compound 1 µM); 89.8% and 75.2% and 74.9% (compound 3.16 µM); 68.3% and 69.6% and 60.1% (compound 10 µM). For the same compound, the IC50 (curve of compound) is above 10 µM.
Take `COc1cccc2c1C(=O)c1c(O)c3c(c(O)c1C2=O)CC(O)(C(=O)CO)CC3OC1CC(N)C(O)C(C)O1` (centres undefined) + Cc1[nH]c2ccc(F)cc2c1-c1nc2c3cccnc3c3ncccc3c2[nH]1: the IC50 is 2.48 µM under setting [1]; 4.57 µM under setting [2]; 3.27 µM under setting [3]; 3.6 µM under setting [4]; 0.415 µM under setting [5]; below 0.0316 µM under setting [6]. Moreover, the viability, T/C is, setting by setting: under setting [7], 79.4%; under setting [8], 79.9%; under setting [9], 108%; under setting [10], 64.9%; under setting [11], 53%; under setting [12], 39%. Besides, the viability, T/C was 82.6% under setting [13]; 96.3% under setting [14]; 75.3% under setting [15]; 89.1% under setting [16]; 54.2% under setting [17]; 40.9% under setting [18]. Also, the viability, T/C by setting is: under setting [19], 82.6%; under setting [20], 82.6%; under setting [21], 81.3%; under setting [22], 77.2%; under setting [23], 50.5%; under setting [24], 34.2%. Besides, the viability, T/C was 57.2% under setting [25]; 78.3% under setting [26]; 70.1% under setting [27]; 70.9% under setting [28]; 52.1% under setting [29]; 33.8% under setting [30]. The viability, T/C is 50.7% under setting [31]; 63.5% under setting [32]; 52.3% under setting [33]; 41.4% under setting [34]; 43.3% under setting [35]; 35.7% under setting [36]. Further, the viability, T/C under setting [37] was 50%; the viability, T/C under setting [38] was 44.4%; the viability, T/C under setting [39] was 49.1%; the viability, T/C under setting [40] is 47.6%; the viability, T/C under setting [41] was 39.7%; the viability, T/C under setting [42] was 27.6%.

What is called viability, T/C is the result in the treated group divided by that in the control group, in per cent. One may read the IC50 as the concentration that gives 50% inhibition.
